Test results taken from patent EP2216341A1, “Transferrin variants and conjugates” (Novozymes Biopharma UK Limited, priority 2009, dated 2010).

Experiments:
[1] = biological target: T1, transferrin receptor 1 (TfR1) (Homo sapiens, UniProt P02786); assay: Transferrin receptor 1 binding by Surface Plasmon Resonance (SPR, Biacore); settings: fluorescein conjugated sample
T1 construct: purchased AbD Serotec 9110-300
From the text: The receptor binding capability of the recombinant transferrin variants can be determined by Surface Plasmon Resonance (SPR) analysis. The binding activity of a transferrin sample to a transferrin receptor can be measured using surface plasmon resonance (SPR) a non-invasive optical technique in which the SPR response is a measure of change in mass concentration at the detector surface as molecules bind or dissociate. A sample is sent onto the surface of the sensor chip via a micro flow system at a constant flow rate. In this analysis, if the transferrin sample is able to bind to the Transferrin Receptor the mass on the surface sensor chip is increased due to binding between Transferrin Receptor and Transferrin molecules creating a surface plasmon wave, and a shift of the SPR signal proportional to the binding quantity can be detected as a change in the resonance unit (RU). […]
The binding capacity of human serum transferrin to human trabnsferrin receptor 1 may be measured by SPR. […]
The receptor binding capability of the recombinant transferrin variants was assessed by Surface Plasmon Resonance (SPR) analysis. The binding activity of a transferrin sample to transferrin receptor can be measured using surface plasmon resonance (SPR) a non-invasive optical technique in which the SPR response is a measure of change in mass concentration at the detector surface as molecules bind or dissociate. […]

[2] = system: K562 erythroleukemic cells; assay: 55Fe uptake from labeled diferric transferrin in erythroleukemic K562 cells; type: cell-based, human; settings: 25 minutes at 37°C
Method: Human plasma-derived apo-transferrin (Calbiochem 616419, tissue culture grade, pyrogen-free) is supplied lyophilised from 10mM phosphate buffer, pH7.4. The transferrin mutein is expressed, purified and quantified as described above.
For iron-55 uptake from labeled diferric transferrin, K562 erythroleukemic cells, cultured in RPMI cell culture medium under standard conditions (bicarbonate-buffered, 5% (v/v) CO2, antibiotics, 10% (v/v) fetal calf serum) are washed with serum-free medium containing HEPES-buffer and 1 mg/ml of bovine serum albumin and used at a concentration of 10 million cells/ml in this medium. The samples tested are prepared as equimolar concentrations of apo-transferrin mutein. Apo-transferrin mutein is loaded with iron according to a standard procedure (Bates and Schlabach, J Biol Chem, 248, 3228-3232, 1973) using ferric nitrilotriacetate as iron source. Typically 50µl of 1 M NaClO4 is added to 450µl of the transferrin mutein stock-solution (pH is alkaline to neutral). The ^55Fe -NTA-loading-buffer is prepared by mixing 8.5µl 50mM NTA (pH 8.25), 18.9µl 0.1M Tris, 98.8µl Millipore-purified water and 7.5µl ^55FeCl3 in 0.5 N HCl (NEN products). 500µl of transferrin mutein is carefully mixed (dropwise) with the ^55Fe -NTA-loading-buffer and then 310µl of 5mM Hepes. NaOH/0.1M NaClO4 is added. The mixture is incubated at 4°C for 60 min following which it is deslated on a PD-10 column (containing Sephadex G-25) and dialysed. The PD-10 column is equilibrated with 5ml of equilibration buffer (5mM Hepes/NaOH, 0.1M NaClO4, 0.1 g BSA (Amresco)) then washed three times with 5ml of wash buffer (5mM Hepes/NaOH, 0.1M NaClO4). […]
Increasing concentrations of human plasma transferrin or the transferrin mutein sample (0, 25, 100, 200, 400, 800, 1600 nM), labeled with ^55Fe, are mixed with 25 µl of medium. […] The lysates are neutralized with 1 M HCl after overnight lysis, mixed with Readysolv Scintillation cocktail and counted in the Packard Liquid Scintillation Counter. […]

T1 sequence (P02786 whole entry): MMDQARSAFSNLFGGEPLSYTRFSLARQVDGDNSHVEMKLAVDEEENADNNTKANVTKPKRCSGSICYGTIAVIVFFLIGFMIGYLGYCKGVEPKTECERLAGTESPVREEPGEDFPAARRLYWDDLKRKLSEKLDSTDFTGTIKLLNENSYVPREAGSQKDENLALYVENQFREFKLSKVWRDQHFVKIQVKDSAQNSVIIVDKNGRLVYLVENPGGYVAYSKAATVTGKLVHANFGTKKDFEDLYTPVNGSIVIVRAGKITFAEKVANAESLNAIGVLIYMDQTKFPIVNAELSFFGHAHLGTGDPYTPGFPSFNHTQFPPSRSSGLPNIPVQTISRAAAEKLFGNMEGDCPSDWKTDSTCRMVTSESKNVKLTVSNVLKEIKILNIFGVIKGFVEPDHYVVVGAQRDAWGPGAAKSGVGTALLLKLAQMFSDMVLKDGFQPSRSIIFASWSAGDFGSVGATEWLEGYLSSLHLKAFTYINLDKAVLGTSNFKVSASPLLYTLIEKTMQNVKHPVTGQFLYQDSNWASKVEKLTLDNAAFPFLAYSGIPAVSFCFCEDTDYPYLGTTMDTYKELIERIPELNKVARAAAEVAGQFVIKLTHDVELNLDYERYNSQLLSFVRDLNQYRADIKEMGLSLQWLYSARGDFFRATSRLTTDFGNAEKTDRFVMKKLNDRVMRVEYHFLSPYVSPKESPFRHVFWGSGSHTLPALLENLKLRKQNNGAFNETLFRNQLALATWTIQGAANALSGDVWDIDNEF

Substance: Fluorescein conjugated thio-transferrin (S415C, T613A): thiotransferrin (S415C, T613A) conjugated with fluorescein
- ability to bind to transferrin receptor 1 (measured by SPR) [1]: able to bind to transferrin receptor 1 by SPR analysis in a manner equivalent to the unconjugated sample
- Specific iron ptake Bmax ([2]; 55Fe-labeled sample 0-1600 nM, specific uptake (unspecific binding with hundredfold excess unlabeled diferric transferrin accounted for)): 3246±217 fmol^55Fe/10^6 cells 25min
- Total Iron Uptake Bmax ([2]; 55Fe-labeled sample 0-1600 nM, total uptake): 4165±216 fmol^55Fe/10^6 cells x 25min
- Kd ([2]; specific uptake, read-out: Specific iron ptake Kd x): 0.189 ± 0.047 µM
